Measurements: publication PMC8987054, “Structural basis for PoxtA-mediated resistance to phenicol and oxazolidinone antibiotics” (Nature Communications, 2022)
Values after ≈ are worked out from the molar mass of the structure shown. Where two headings read alike, the source gives them in different places.

Legend:
[1] = test system: T1, E. faecium 9-F-6; test: microbe, parasite or virus in culture; design: Broth microdilution MIC, EUENCF Sensititre plate, multidrug-resistant clinical isolate; conditions: Enterococcus faecium, 9F6, read-out: MIC BMD
T1 construct: 9-F-6 (ST872)
Description: (§1) ST872 is a single locus variant of ST80 which is a pandemic hospital-adapted genetic lineage. […] The results (MICs) were interpreted according to EUCAST clinical breakpoints v.

[2] = test system: T1, E. faecium 9-F-6; test: microbe, parasite or virus in culture; design: Gradient test MIC (MIC Test Strip, Liofilchem), multidrug-resistant clinical isolate; conditions: Enterococcus faecium, 9F6, read-out: MIC GRAD
Description: as §1

| SMILES | MIC [1] | MIC [2] |
| --- | --- | --- |
| CC1(C)S[C@@H]2[C@H](NC(=O)[C@H](N)c3ccc(O)cc3)C(=O)N2[C@H]1C(=O)O [Amoxicillin] | > 32 µg/mL | – |
| CC1(C)S[C@@H]2[C@H](NC(=O)[C@H](N)c3ccccc3)C(=O)N2[C@H]1C(=O)O [Ampicillin] | > 32 µg/mL | > 256 µg/mL |
| O=C(N[C@H](CO)[C@H](O)c1ccc([N+](=O)[O-])cc1)C(Cl)Cl [Chloramphenicol] | – | 16 µg/mL (≈ 49.5 µM) |
| CCC[C@@H]1C[C@@H](C(=O)N[C@@H]([C@H]2O[C@H](SC)[C@H](O)[C@@H](O)[C@H]2O)[C@H](C)Cl)N(C)C1 [Clindamycin] | – | > 256 µg/mL |
| CNC(C)[C@@H]1CC[C@@H](N)[C@@H](O[C@H]2[C@H](O)[C@@H](O[C@H]3OC[C@](C)(O)[C@H](NC)[C@H]3O)[C@H](N)C[C@@H]2N)O1 (some centres unmarked) [Gentamicin] | > 256 µg/mL | > 1020 µg/mL |
| C[C@@H](O)[C@H]1C(=O)N2C(C(=O)O)=C(SCCNC=N)C[C@H]12 [Imipenem] | > 16 µg/mL | – |
| C[C@H]1COc2c(N3CCN(C)CC3)c(F)cc3c(=O)c(C(=O)O)cn1c23 [Levofloxacin] | > 16 µg/mL | – |
| CC(=O)NC[C@H]1CN(c2ccc(N3CCOCC3)c(F)c2)C(=O)O1 [Linezolid] | 8 µg/mL (≈ 23.7 µM) | – |
| CN[C@@H]1[C@H](O[C@H]2[C@H](O[C@H]3[C@H](O)[C@@H](O)[C@H](N=C(N)N)[C@@H](O)[C@@H]3N=C(N)N)O[C@@H](C)[C@]2(O)C=O)O[C@@H](CO)[C@H](O)[C@H]1O [Streptomycin] | > 1020 µg/mL | – |
| CN(C)c1cc(NC(=O)CNC(C)(C)C)c(O)c2c1C[C@H]1C[C@H]3[C@H](N(C)C)C(O)=C(C(N)=O)C(=O)[C@@]3(O)C(O)=C1C2=O [Tigecycline] | 0.12 µg/mL (≈ 0.205 µM) | – |
| CN[C@H](CC(C)C)C(=O)N[C@H]1C(=O)N[C@@H](CC(N)=O)C(=O)N[C@H]2C(=O)N[C@H]3C(=O)N[C@H](C(=O)N[C@H](C(=O)O)c4cc(O)cc(O)c4-c4cc3ccc4O)[C@H](O)c3ccc(c(Cl)c3)Oc3cc2cc(c3O[C@@H]2O[C@H](CO)[C@@H](O)[C@H](O)[C@H]2O[C@H]2C[C@](C)(N)[C@H](O)[C@H](C)O2)Oc2ccc(cc2Cl)[C@H]1O [Vancomycin] | > 16 µg/mL | > 256 µg/mL |
